pIC50: −log10 of the molar value.
How the values were obtained:
[1] = Inhibition of ABL T315I mutant in mouse BAF3 cells assessed as reduction in cell viability after 72 hrs by MTT assay
[2] = Inhibition of ABL in mouse BAF3 cells assessed as reduction in cell viability after 72 hrs by MTT assay

SMILES	pIC50 [1]	pIC50 [2]
COc1cc(N2CCN(C)CC2)ccc1Nc1ncc(Cl)c(Oc2ccc(NC(=O)COCc3ccccc3)cc2)n1	5.44	5.68
COc1cc(N2CCN(C)CC2)ccc1Nc1ncc(Cl)c(Oc2ccccc2NC(=O)CCOCc2ccccc2)n1	5.51	5.51
COc1cc(N2CCN(C)CC2)ccc1Nc1ncc(Cl)c(Oc2ccccc2NC(=O)CO)n1	5.38	5.68
COc1cc(N2CCN(C)CC2)ccc1Nc1ncc(Cl)c(Oc2ccccc2N=C=S)n1	5.05	5.25
COc1cc(N2CCN(C)CC2)ccc1Nc1ncc(Cl)c(Oc2cccc(NC(=O)/C=C/CN(C)C)c2)n1	5.22	5.15
COc1cc(N2CCN(C)CC2)ccc1Nc1ncc(Cl)c(Oc2ccc([N+](=O)[O-])cc2)n1	5.16	5.46
COc1cc(N2CCN(C)CC2)ccc1Nc1ncc(Cl)c(Oc2ccc(NC(=O)CCO)cc2)n1	5.47	5.49
COc1cc(N2CCN(C)CC2)ccc1Nc1ncc(Cl)c(Oc2cccc(N)c2)n1	5.71	5.72
COc1cc(N2CCN(C)CC2)ccc1Nc1ncc(Cl)c(Oc2cccc(N=C=S)c2)n1	5.30	5.08
COc1cc(N2CCN(C)CC2)ccc1Nc1ncc(Cl)c(Oc2ccccc2[N+](=O)[O-])n1	4.94	5.17
C=CC(=O)Nc1ccc(Oc2nc(Nc3ccc(N4CCN(C)CC4)cc3OC)ncc2Cl)cc1	5.11	5.19
COc1cc(N2CCN(C)CC2)ccc1Nc1ncc(Cl)c(Oc2ccc(NC(=O)CO)cc2)n1	5.56	5.18
COc1cc(N2CCN(C)CC2)ccc1Nc1ncc(Cl)c(Oc2ccc(NC(=O)/C=C/CN(C)C)cc2)n1	5.47	5.33
COc1cc(N2CCN(C)CC2)ccc1Nc1ncc(Cl)c(Oc2ccccc2NC(=O)/C=C/CN(C)C)n1	5.09	5.04
COc1cc(N2CCN(C)CC2)ccc1Nc1ncc(Cl)c(Oc2ccc(N)cc2)n1	5.26	5.55
COc1cc(N2CCN(C)CC2)ccc1Nc1ncc(Cl)c(Oc2cccc(NC(=O)CO)c2)n1	5.95	5.83
COc1cc(N2CCN(C)CC2)ccc1Nc1ncc(Cl)c(Oc2cccc(N=[N+]=[N-])c2)n1	5.33	5.41

SMILES	pIC50 [1]	pIC50 [2]
COc1cc(N2CCN(C)CC2)ccc1Nc1ncc(Cl)c(Oc2ccccc2NC(C)=O)n1	5.33	5.07
COc1cc(N2CCN(C)CC2)ccc1Nc1ncc(Cl)c(Oc2ccc(N=C=S)cc2)n1	5.02	5.12
COc1cc(N2CCN(C)CC2)ccc1Nc1ncc(Cl)c(Oc2ccccc2N)n1	5.24	5.17
C=CC(=O)Nc1ccccc1Oc1nc(Nc2ccc(N3CCN(C)CC3)cc2OC)ncc1Cl	5.63	5.53
COc1cc(N2CCN(C)CC2)ccc1Nc1ncc(Cl)c(Oc2cccc(NC(=O)CCO)c2)n1	5.86	5.68
COc1cc(N2CCN(C)CC2)ccc1Nc1ncc(Cl)c(Oc2cccc(NC(=O)COCc3ccccc3)c2)n1	5.54	5.61
COc1cc(N2CCN(C)CC2)ccc1Nc1ncc(Cl)c(Oc2cccc(NC(C)=O)c2)n1	5.25	5.54
COc1cc(N2CCN(C)CC2)ccc1Nc1ncc(Cl)c(Oc2ccc(N=[N+]=[N-])cc2)n1	4.82	4.88
COc1cc(N2CCN(C)CC2)ccc1Nc1ncc(Cl)c(Oc2cccc(NC(=O)CCOCc3ccccc3)c2)n1	5.60	5.61
C=CC(=O)Nc1cccc(Oc2nc(Nc3ccc(N4CCN(C)CC4)cc3OC)ncc2Cl)c1	4.79	5.01
COc1cc(N2CCN(C)CC2)ccc1Nc1ncc(Cl)c(Oc2ccc(NC(=O)CCOCc3ccccc3)cc2)n1	5.82	5.84
COc1cc(N2CCN(C)CC2)ccc1Nc1ncc(Cl)c(Oc2ccccc2NC(=O)CCO)n1	5.41	5.67
COc1cc(N2CCN(C)CC2)ccc1Nc1ncc(Cl)c(Oc2cccc([N+](=O)[O-])c2)n1	5.04	5.17
COc1cc(N2CCN(C)CC2)ccc1Nc1ncc(Cl)c(Oc2ccccc2N=[N+]=[N-])n1	5.88	5.84
COc1cc(N2CCN(C)CC2)ccc1Nc1ncc(Cl)c(Oc2ccc(NC(C)=O)cc2)n1	5.54	5.68
COc1cc(N2CCN(C)CC2)ccc1Nc1ncc(Cl)c(Oc2ccccc2NC(=O)COCc2ccccc2)n1	5.46	5.86
